Test results taken from PubChem BioAssay AID488818 (NMMLSC, 2010).
Activity calls are given as the source filed them.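 How the source made its calls: active means fluorescence change from solvent-only control to top dose above 25; inactive means the rest.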

system: S. cerevisiae s288c autofluorescence, flow cytometry MCF, 3 h; experiment: compound autofluorescence in parental yeast s288c, SAR follow-up, artefact control for yeast TOR pathway GFP screen, cherry pick 3, multiplex, flow cytometry (AID 488818); details: at 33.3 µM; hits give high values

Row | Compound | fluorescence change
1 | Oc1c(Br)cc(Br)c2cccnc12 | 3.5 (inactive)
2 | CCOC(=O)CS(=O)(=O)c1nc(-c2ccccc2)cc(C(F)(F)F)n1 | 0.24 (inactive)
3 | O=C(O)c1ccc2cccc(O)c2n1 | 0.18 (inactive)
4 | Oc1c(Cl)cc(Cl)c2cccnc12 | 2.85 (inactive)
5 | CCCOCc1ccc(O)c2ncccc12 | 0.25 (inactive)
6 | Cn1cccc1C(=O)Nc1nc(-c2ccccn2)cs1 | 0.3 (inactive)
7 | Cc1nc2c(O)cccc2cc1CO | 0.06 (inactive)
8 | NC(=O)c1ccnc2c(O)cccc12 | 0.06 (inactive)
9 | Oc1ccc(Cl)c2cccnc12 | 0.19 (inactive)
10 | Cc1ccc(NN2C(=O)C=C(c3ccccc3)C2=O)cc1 | 0.65 (inactive)
11 | Oc1ccc(F)c2cccnc12 | 0.06 (inactive)
12 | COc1ccc(OC)c2c(=O)cc(C(=O)O)[nH]c12 | 0.06 (inactive)
13 | CC1=NNC(=O)/C1=C\c1cn(-c2ccccc2)nc1-c1ccc(F)cc1 | 0.24 (inactive)
14 | CC(=O)NC(C)c1cc(Cl)c2cccnc2c1O (stereo unspecified) | 0.25 (inactive)
15 | CCc1sc(C(=O)Nc2nc(-c3ccccn3)cs2)cc1C | 0.65 (inactive)
16 | N#Cc1c(N)nc(N)nc1Nc1ccc(Br)cc1 | 0.12 (inactive)
17 | Cc1ccc(C(=O)Nc2nc(-c3ccccn3)cs2)o1 | 0.24 (inactive)
18 | Cc1ccc2c(C)ccc(O)c2n1 | 0 (inactive)
19 | Cc1ccc2c(Cl)cc(Cl)c(O)c2n1 | 0.81 (inactive)
20 | Oc1c(I)cc(Cl)c2cccnc12 | 2.85 (inactive)
21 | O=C(Nc1nc(-c2ccccn2)cs1)c1ccccc1-n1cnnn1 | 0.07 (inactive)
22 | O=C(O)c1ccc2cccnc2c1O | 0.12 (inactive)

Second part, the compound after the results:

Row | fluorescence change | Compound
23 | 0.12 (inactive) | COCC(C)NC(=O)CCS(=O)(=O)c1nc(-c2ccc(OC)cc2)cc(C(F)(F)F)n1 (stereo unspecified)
24 | 0.18 (inactive) | COCCNc1nc(N)c([N+](=O)[O-])c(Nc2ccc(F)cc2)n1
25 | 0.19 (inactive) | COc1ccccc1Nc1nc(NCCO)nc(N)c1[N+](=O)[O-]
26 | 0.08 (inactive) | CNc1nc(N)c([N+](=O)[O-])c(Nc2ccccc2OC)n1
27 | 0.24 (inactive) | COc1cccc2c(Cl)c(CCCl)c(C)nc12
28 | 0.06 (inactive) | COc1ccc(Nc2nc(NN)nc(C)c2[N+](=O)[O-])cc1
29 | 0.12 (inactive) | Nc1nc(NCCOCCO)nc(Nc2cccc(F)c2)c1[N+](=O)[O-]
30 | 0 (inactive) | Cc1nc(Nc2ccc(Br)cc2Br)c([N+](=O)[O-])c(=O)[nH]1
31 | 0.18 (inactive) | COc1ccccc1-c1cc(C(F)(F)F)nc(S(=O)(=O)CCCC(=O)NC(C)C)n1
32 | 0.12 (inactive) | Cc1cccc(C)c1Nc1ncnc(N)c1[N+](=O)[O-]
33 | 0.12 (inactive) | COc1ccc(OC)c(Nc2nc(NCCC(C)C)nc(N)c2[N+](=O)[O-])c1
34 | 0.06 (inactive) | COCCCNc1nc(N)c([N+](=O)[O-])c(Nc2ccccc2OC)n1
35 | 0.06 (inactive) | CNc1nc(C)c([N+](=O)[O-])c(Nc2ccc(OC)cc2)n1
36 | 0.07 (inactive) | COc1ccccc1Nc1nc(NCCC(C)C)nc(N)c1[N+](=O)[O-]
37 | 0.12 (inactive) | Nc1ncnc(Nc2cc(Cl)cc(Cl)c2)c1[N+](=O)[O-]
38 | 0.08 (inactive) | CNc1nc(N)c([N+](=O)[O-])c(Nc2cccc(Cl)c2)n1
39 | 0.5 (inactive) | COc1ccccc1-c1cc(C(F)(F)F)nc(S(=O)(=O)CCCC(=O)O)n1
40 | 0.06 (inactive) | CCC(C)Nc1nc(N)c([N+](=O)[O-])c(Nc2ccccc2OC)n1 (stereo unspecified)
41 | 0.8 (inactive) | CCC(C)Nc1nc(N)c([N+](=O)[O-])c(Nc2cc(OC)ccc2OC)n1 (stereo unspecified)
